Where a name gives a salt, the structure may show the parent alone. Read-outs that look alike come from different tables or passages of the source.
Key:
[1] = system: H9c2 (ATCC CRL-1446) cells; experiment: Cytotoxicity in H9c2 cells (CCK-8); format: cell-based; details: H9c2 cell line
How it was run: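 H9c2 cells were grown in DMEM with 10% FBS, seeded the day before, and exposed to a range of di-amidine concentrations for 24 h at 37 °C, 5% CO2. Viability was read by CCK-8 after 3 h at 37 °C as absorbance at 450 nm.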

E. coli (ATCC 25922) = experiment: MIC determination, sensitization fold and FIC index on E. coli; format: cell-based; details: for MIC: Escherichia coli, ATCC25922, 24 h
How it was run: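 MICs read by OD600 as >90% growth inhibition after two-fold rifampicin dilutions, 5×10^5 CFU/ml E. coli, 24 h, 37 °C, shaken, cation-adjusted Mueller Hinton II broth.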

B. subtilis = experiment: MIC determination and sensitization fold on B. subtilis; format: cell-based; details: B. subtilis; for Sensitization fold: erythromycin
M. smegmatis = experiment: MIC on mycobacteria; format: cell-based, Mycobacterium smegmatis; details: Mycolicibacterium smegmatis, read-out: MIC on mycobacteria
HEK293 cells = experiment: Cytotoxicity on mammalian cells (CCK-8), HEK293; format: cell-based
How it was run: (§1)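 Cells seeded a day ahead to ~80% confluency, exposed to varied compound concentrations for 24 h at 37° C, 5% CO2. CCK-8 added for a further 2 h and OD 450 nm read; viability expressed as percent of untreated control.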

NIH3T3 cells = experiment: Cytotoxicity on mammalian cells (CCK-8), NIH3T3; format: cell-based; details: 3T3 cell line; 24 h
How it was run: as §1

[2] = E. coli, rifampicin, compound at 25 μM

| SMILES | CC50 [1] [µM] | MIC (E. coli (ATCC 25922); E. coli, compound alone, read-out: MIC) [µM] | Sensitization fold (E. coli (ATCC 25922); [2]) | Sensitization fold (E. coli (ATCC 25922); E. coli, rifampicin, compound at 50 μM) | MIC (E. coli (ATCC 25922)) [µM] | Sensitization fold (B. subtilis; compound at 6 μM) | Sensitization fold (B. subtilis; compound at 12 μM) | MIC (B. subtilis; Bacillus subtilis, 24 h, compound alone, read-out: MIC) [µM] | MIC (M. smegmatis) [µM] | Sensitization fold (E. coli (ATCC 25922); 10 μM compound, rifampicin as the antibiotic (Table 6)) [fold] | Sensitization fold (E. coli (ATCC 25922); E. coli, rifampicin, compound at 10 μM) | CC50 (HEK293 cells; HEK293 cell line, 24 h) [µM] | IC50 (HEK293 cells; Homo sapiens, HEK293) [µM] | CC50 (NIH3T3 cells) [µM] |
| --- | --- | --- | --- | --- | --- | --- | --- | --- | --- | --- | --- | --- | --- | --- |
| N=C(N)c1ccc(OCc2ccc(-c3ccc(C(=N)N)cc3)cc2)cc1 [DB2542] | 100 | 50 |  |  |  |  |  |  |  |  |  |  |  |  |
| N=C(N)c1ccc(OCc2cccc(COc3ccc(C(=N)N)cc3)c2)cc1 [DB2559, 1,3-Bis {(4-amidino)-phenoxymethyl}-benzene dihydrochloride] | 100 |  | 8-fold at 25 μM; | 16-fold at 50 μM; | 100 | 4-fold at 6 μM | 8-fold at 12 μM; | 25 | 12 |  |  |  |  |  |
| Cc1cc(COc2ccc(NC(=N)N)cc2)cc(COc2ccc(NC(=N)N)cc2)c1 [MD-125, 1,1′-((((5-methyl-1,3-phenylene)bis(methylene))bis(oxy))bis(4,1-phenylene)) diguanidine di(trifluoroacetate)] | 100 |  | 32-fold at 25 μM |  | 100 |  |  |  |  | 8 | 8-fold at 10 μM | 100 | 100 | 100 |
